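Dose response: 5 concentrations. Exposure: 48 h. Format: 96-well plates. Endpoint: linear interpolation; highest concentration if not reached. Here, GI50 denotes the concentration required for 50% inhibition of growth. TGI is the concentration that stops growth completely.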
Legend:
Assay in all cases: inhibition of tumour cell growth, NCI panel, 48 h
OVCAR-5 ovarian = test system: OVCAR-5 ovarian
NCI-H23 lung = test system: NCI-H23 lung
HOP-62 NSCLC = test system: HOP-62 NSCLC
SNB-19 CNS = test system: SNB-19 CNS
SF-295 CNS = test system: SF-295 CNS
COLO 205 colon = test system: COLO 205 colon
HCT-116 colon = test system: HCT-116 colon
NCI-H522 lung = test system: NCI-H522 lung
MOLT-4 leukemia = test system: MOLT-4 leukemia
HS 578T breast = test system: HS 578T breast

| SMILES | TGI (OVCAR-5 ovarian) [µM] | TGI (NCI-H23 lung) [µM] | TGI (HOP-62 NSCLC) [µM] | TGI (SNB-19 CNS) [µM] | TGI (SF-295 CNS) [µM] | TGI (COLO 205 colon) [µM] | TGI (HCT-116 colon) [µM] | TGI (NCI-H522 lung) [µM] | TGI (MOLT-4 leukemia) [µM] | GI50 (OVCAR-5 ovarian) [µM] | GI50 (NCI-H23 lung) [µM] | GI50 (HOP-62 NSCLC) [µM] | GI50 (SNB-19 CNS) [µM] | GI50 (SF-295 CNS) [µM] | GI50 (COLO 205 colon) [µM] | GI50 (HS 578T breast) [µM] | TGI (HS 578T breast) [µM] | GI50 (HCT-116 colon) [µM] | GI50 (MOLT-4 leukemia) [µM] | GI50 (NCI-H522 lung) [µM] |
| --- | --- | --- | --- | --- | --- | --- | --- | --- | --- | --- | --- | --- | --- | --- | --- | --- | --- | --- | --- | --- |
| O=c1[nH]c2cc(Cl)ccc2nc1/C(=N\O)C(O)c1cccc([N+](=O)[O-])c1 (centres undefined) | > 100 | > 100 | > 100 | > 100 | > 100 | > 100 | > 100 | > 100 | > 100 | – | – | – | – | – | – | – | – | – | – | – |
| CN1C(=Nc2ccccc2)SC1=Nc1ccccc1 | > 100 | > 100 | > 100 | > 100 | > 100 | > 100 | > 100 | 41.3 | > 100 | – | – | – | – | – | – | – | – | – | – | – |
| c1ccc2c(c1)cc(C1NCCc3[nH]cnc31)c1ccccc12 (centres undefined) | > 100 | > 100 | > 88.6 | > 100 | > 100 | 26.4 | 42.7 | > 68.5 | 61.7 | – | – | – | – | – | – | – | – | – | – | – |
| COc1cc(NC(C)CCCNC2CN3CCC2CC3)c2ncccc2c1 (centres undefined) | 28.3 | 29.6 | 24.8 | 32 | 27.7 | 7.16 | 13.9 | – | 31.8 | 14.5 | 13.8 | 11.9 | 15.8 | 11.6 | 2.58 | 14.8 | 39.6 | 3.75 | 12.8 | – |
| OC(c1ccccc1)(c1ccccc1)c1ccncc1 | > 100 | > 100 | > 100 | > 100 | > 100 | > 100 | > 100 | > 100 | > 100 | – | – | – | – | – | – | – | – | – | – | – |
| COc1ccc2n[se]nc2c1 | > 100 | > 100 | – | > 100 | > 100 | > 100 | – | > 100 | > 100 | – | – | – | – | – | – | – | – | – | – | – |
| CCN(CC)c1c(C(=O)/C=C/c2ccc(OC)cc2)c(-c2ccccc2)nn(C)c1=O | 28 | 34.6 | > 100 | 45.9 | 63.6 | 9.25 | – | – | 19.8 | – | – | – | – | – | – | – | – | – | – | – |
| Cc1cc(=O)n(-c2ccccc2C)c(C)n1 | > 100 | > 100 | > 100 | > 100 | > 100 | > 100 | > 100 | > 100 | > 100 | – | – | – | – | – | – | – | – | – | – | – |
| COc1ccc(/C(COc2ccc3c(=O)cc(-c4ccccc4)oc3c2)=N\O)cc1 | > 10.2 | > 50 | > 50 | > 50 | 42.8 | > 50 | > 50 | 26.6 | > 50 | 0.402 | 29.5 | 26.1 | 18.7 | 12.5 | 26.5 | – | – | 21.2 | > 50 | 7.32 |
| Clc1ccc(C2SCc3nc4ccccc4n32)c(Cl)c1 (centres undefined) | 30.3 | 25.1 | 27.5 | 33 | 21.1 | 31.5 | 27.6 | 29.9 | 34.6 | – | – | – | – | – | – | – | – | – | – | – |
